Test results from patent publication US20250154138A1, “Small Molecule IL-17A Modulators” (BeiGene, Ltd., priority 2022, published 2025).
Where two headings read alike, the source gives them in different places.

Columns and labels:
[1] = target: human IL-17A / human IL-17RA (Homo sapiens (Human), UniProt Q16552); experiment: Human IL-17A biochemical assay (HTRF, blocking of IL-17A binding to IL-17RA); conditions: 0.4 nM IL-17A, 0.3 nM IL-17RA, max compound concentration 10 uM
Summary of the method: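 Compounds (10-point, 2.7-fold dilution from 10 uM) preincubated 3 h at RT with 0.4 nM human IL-17A, followed by 1 h with 0.3 nM IL-17RA and 1 h with Tb-cryptate/XL665 antibodies; buffer 20 mM HEPES pH 7.5, 0.1% BSA. Inhibition derived from HTRF fluorescence ratio; IC50 by four-parameter logistic fitting.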

[2] = system: IL-17-induced GROα secretion from HT-29 cells; experiment: GROα release assay in human colorectal adenocarcinoma epithelial cell (HT-29, ELISA); format: cell-based; conditions: 10 ng/mL IL-17A, highest concentration 10 μM, read-out: Cellular assay HT29 cell/CXCL1 IC50
Summary of the method: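 IC50 values come from four-parameter fits of GROα levels, quantified by ELISA (450 nm, standard curve) in supernatants. Compounds, 4-fold serially diluted from 10 μM, were mixed 15 min with IL-17A (10 ng/mL final) before 48 h incubation with HT-29 cells at 37°C.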

Sequence of human IL-17A / human IL-17RA (Q16552 24-155): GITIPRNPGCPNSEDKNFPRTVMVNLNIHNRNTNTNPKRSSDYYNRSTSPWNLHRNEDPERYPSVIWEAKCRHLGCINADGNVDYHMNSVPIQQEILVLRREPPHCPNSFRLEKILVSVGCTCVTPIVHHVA

Row | SMILES | IC50 [1] | IC50 ([2]; Homo sapiens, HT-29, 48 h) | IC50 ([2]; 48 hours)
1 | CC(C)n1nccc1C(=O)N[C@H](C(=O)Nc1ccc2c(c1)CC(c1nc3cccc(C(F)(F)F)c3[nH]1)(N1CC3(CC3)CNC1=O)C2)C(C1CC1)C1CC1 (stereo partly drawn) [Example 198, N-((2S)-1,1-dicyclopropyl-3-oxo-3-((2-(6-oxo-5,7-diazaspiro[2.5]octan-5-yl)-2-(7-(trifluoromethyl)-1H-benzo[d]imidazol-2-yl)-2,3-dihydro-1H-inden-5-yl)amino)propan-2-yl)-1-isopropyl-1H-pyrazole-5-carboxamide] | 1.13 µM | 0.317 µM | 
2 | Cn1nccc1C(=O)N[C@H](C(=O)Nc1ccc2c(c1)CC(N1CC3(CC3)CNC1=O)C2)C1CCCCC1 (stereo partly drawn) [Example 199, N-((1S)-1-cyclohexyl-2-oxo-2-((2-(6-oxo-5,7-diazaspiro[2.5]octan-5-yl)-2,3-dihydro-1H-inden-5-yl)amino)ethyl)-1-methyl-1H-pyrazole-5-carboxamide] | 0.57 µM | 2.77 µM | 
3 | Cn1nccc1C(=O)N[C@H](C(=O)Nc1ccc2c(c1)CC(C(=O)Nc1cccc(F)c1)(N1CC3(CC3)CNC1=O)C2)C1CCCCC1 (stereo partly drawn) [Example 200, N-((1S)-1-cyclohexyl-2-((2-((3-fluorophenyl)carbamoyl)-2-(6-oxo-5,7-diazaspiro[2.5]octan-5-yl)-2,3-dihydro-1H-inden-5-yl)amino)-2-oxoethyl)-1-methyl-1H-pyrazole-5-carboxamide] | 0.0312 µM | 0.107 µM | 
4 | CNC(=O)C1(N2C[C@@H](C(C)C)NC2=O)Cc2ccc(NC(=O)C(NC(=O)c3ccnn3C)C3CCc4c(Cl)cccc4C3)cc2C1 (stereo partly drawn) [Example 201, N-(1-(5-chloro-1,2,3,4-tetrahydronaphthalen-2-yl)-2-((2-((R)-4-isopropyl-2-oxoimidazolidin-1-yl)-2-(methylcarbamoyl)-2,3-dihydro-1H-inden-5-yl)amino)-2-oxoethyl)-1-methyl-1H-pyrazole-5-carboxamide] | 0.0065 µM | 0.0395 µM | 
5 | CNC(=O)C1(N2CC(C(F)(F)F)NC2=O)Cc2ccc(NC(=O)[C@@H](NC(=O)c3ccnn3C)C3CCCCC3)cc2C1 (stereo partly drawn) [Example 202, N-((1S)-1-cyclohexyl-2-((2-(methylcarbamoyl)-2-(2-oxo-4-(trifluoromethyl)imidazolidin-1-yl)-2,3-dihydro-1H-inden-5-yl)amino)-2-oxoethyl)-1-methyl-1H-pyrazole-5-carboxamide] | 0.346 µM | 0.519 µM | 
6 | Cc1nonc1C(=O)N[C@H](C(=O)Nc1ccc2c(c1)CC(C(=O)Nc1cccc(F)c1)(N1CC3(CC3)CNC1=O)C2)C1CCC(F)(F)CC1 (stereo partly drawn) [Example 203, N-((1S)-1-(4,4-difluorocyclohexyl)-2-((2-((3-fluorophenyl)carbamoyl)-2-(6-oxo-5,7-diazaspiro[2.5]octan-5-yl)-2,3-dihydro-1H-inden-5-yl)amino)-2-oxoethyl)-4-methyl-1,2,5-oxadiazole-3-carboxamide] | 0.0639 µM | 0.135 µM | 
7 | CNC(=O)C1(N2C[C@@H](C(C)C)NC2=O)Cc2ccc(NC(=O)[C@H](Cc3ccc(Cl)cc3)NC(=O)c3ccnn3C)cc2C1 (stereo partly drawn) [Example 204, N-((2S)-3-(4-chlorophenyl)-1-((2-((R)-4-isopropyl-2-oxoimidazolidin-1-yl)-2-(methylcarbamoyl)-2,3-dihydro-1H-inden-5-yl)amino)-1-oxopropan-2-yl)-1-methyl-1H-pyrazole-5-carboxamide] | 0.406 µM | 2.24 µM | 
8 | Cc1nonc1C(=O)N[C@H](C(=O)Nc1ccc2c(c1)CC(c1nc(-c3ccccc3)c[nH]1)(N1CC3(CC3)CNC1=O)C2)C1CCC(F)(F)CC1 (stereo partly drawn) [Example 205, N-((1S)-1-(4,4-difluorocyclohexyl)-2-oxo-2-((2-(6-oxo-5,7-diazaspiro[2.5]octan-5-yl)-2-(4-phenyl-1H-imidazol-2-yl)-2,3-dihydro-1H-inden-5-yl)amino)ethyl)-4-methyl-1,2,5-oxadiazole-3-carboxamide] | 0.246 µM | 0.193 µM | 
9 | CC(C)n1nccc1C(=O)N[C@H](C(=O)Nc1ccc2c(c1)CC(c1ncc(-c3ccccc3)[nH]1)(N1CC3(CC3)CNC1=O)C2)C(C1CC1)C1CC1 (stereo partly drawn) [Example 206, N-((2S)-1,1-dicyclopropyl-3-oxo-3-((2-(6-oxo-5,7-diazaspiro[2.5]octan-5-yl)-2-(5-phenyl-1H-imidazol-2-yl)-2,3-dihydro-1H-inden-5-yl)amino)propan-2-yl)-1-isopropyl-1H-pyrazole-5-carboxamide] | 0.27 µM | 0.0325 µM | 
10 | CCC(CC)OC(=O)C1(N2CC3(CC3)CNC2=O)Cc2ccc(NC(=O)[C@@H](NC(=O)c3nonc3C)C3CCC(F)(F)CC3)cc2C1 (stereo partly drawn) [Example 207, pentan-3-yl 5-((S)-2-(4,4-difluorocyclohexyl)-2-(4-methyl-1,2,5-oxadiazole-3-carboxamido)acetamido)-2-(6-oxo-5,7-diazaspiro[2.5]octan-5-yl)-2,3-dihydro-1H-indene-2-carboxylate] | 0.347 µM | 0.861 µM | 
11 | Cc1nonc1C(=O)NC(C(=O)Nc1ccc2c(c1)CC(N1C[C@@H](C(F)(F)F)NC1=O)C2)C1CCc2cc(Cl)ccc2C1 (stereo partly drawn) [Example 208, N-(1-(6-chloro-1,2,3,4-tetrahydronaphthalen-2-yl)-2-oxo-2-((2-((S)-2-oxo-4-(trifluoromethyl)imidazolidin-1-yl)-2,3-dihydro-1H-inden-5-yl)amino)ethyl)-4-methyl-1,2,5-oxadiazole-3-carboxamide] | 0.718 µM | 2.17 µM | 
12 | CC(C)[C@@H]1CC(C2Cc3ccc(NC(=O)[C@@H](NC(=O)c4ccnn4C)C4CCCCC4)cc3C2)C(=O)N1 (stereo partly drawn) [Example 209, N-((1S)-1-cyclohexyl-2-((2-((5S)-5-isopropyl-2-oxopyrrolidin-3-yl)-2,3-dihydro-1H-inden-5-yl)amino)-2-oxoethyl)-1-methyl-1H-pyrazole-5-carboxamide] | 1.06 µM | 2.18 µM | 
13 | Cc1nonc1C(=O)N[C@H](C(=O)Nc1ccc2c(c1)CC(C#N)(N1CC3(CC3)CNC1=O)C2)C1CCC(F)(F)CC1 (stereo partly drawn) [Example 210, N-((1S)-2-((2-cyano-2-(6-oxo-5,7-diazaspiro[2.5]octan-5-yl)-2,3-dihydro-1H-inden-5-yl)amino)-1-(4,4-difluorocyclohexyl)-2-oxoethyl)-4-methyl-1,2,5-oxadiazole-3-carboxamide] | 0.0916 µM | 0.294 µM | 
14 | Cc1nonc1C(=O)N[C@H](C(=O)Nc1ccc2c(c1)CC(C1C[C@@H](C(C)C)NC1=O)C2)C(C1CC1)C1CC1 (stereo partly drawn) [Example 211, N-((2S)-1,1-dicyclopropyl-3-((2-((5S)-5-isopropyl-2-oxopyrrolidin-3-yl)-2,3-dihydro-1H-inden-5-yl)amino)-3-oxopropan-2-yl)-4-methyl-1,2,5-oxadiazole-3-carboxamide] | 0.465 µM |  | 3.69 µM
15 | Cc1nonc1C(=O)N[C@H](C(=O)Nc1ccc2c(c1)CC(C(C)C)(N1CC(C(F)(F)F)NC1=O)C2)C(C1CC1)C1CC1 (stereo partly drawn) [Example 212, N-((2S)-1,1-dicyclopropyl-3-((2-isopropyl-2-(2-oxo-4-(trifluoromethyl)imidazolidin-1-yl)-2,3-dihydro-1H-inden-5-yl)amino)-3-oxopropan-2-yl)-4-methyl-1,2,5-oxadiazole-3-carboxamide] | 0.687 µM | 1.03 µM | 
